ChEMBL document CHEMBL1156533 (2007)
Calls of active or inactive are those of the source. No cut-off for these calls is given here.

Tests used:
Mus musculus [1] = organism: Mus musculus; experiment: Antiasthmatic effect in ovalbumin-challenged BALB/c mouse assessed as decrease in eosinophil infiltration in bronchoalveolar lavage fluid at 100 ug; format: functional, Lung
Mus musculus [2] = organism: Mus musculus; experiment: Antiasthmatic effect in ovalbumin-challenged BALB/c mouse assessed as decrease in IL5 level in bronchoalveolar lavage fluid at 100 ug by ELISA; format: functional, Lung
Mus musculus [3] = organism: Mus musculus; experiment: Antiasthmatic effect in ovalbumin-challenged BALB/c mouse assessed as decrease in IL13 level in bronchoalveolar lavage fluid at 100 ug by ELISA; format: functional, Lung
Mus musculus [4] = organism: Mus musculus; experiment: Antiasthmatic effect in ovalbumin-challenged BALB/c mouse assessed as decrease in eosinophil infiltration in bronchoalveolar lavage fluid at 25 ug; format: functional, Lung
Mus musculus [5] = organism: Mus musculus; experiment: Antiasthmatic effect in ovalbumin-challenged BALB/c mouse assessed as decrease in IL5 level in bronchoalveolar lavage fluid at 25 ug by ELISA; format: functional, Lung
Mus musculus [6] = organism: Mus musculus; experiment: Antiasthmatic effect in ovalbumin-challenged BALB/c mouse assessed as decrease in IL13 level in bronchoalveolar lavage fluid at 25 ug by ELISA; format: functional, Lung
Mus musculus [7] = organism: Mus musculus; experiment: Antiasthmatic effect in ovalbumin-challenged BALB/c mouse assessed as decrease in eosinophil infiltration in bronchoalveolar lavage fluid at 6 ug; format: functional, Lung
Mus musculus [8] = organism: Mus musculus; experiment: Antiasthmatic effect in ovalbumin-challenged BALB/c mouse assessed as decrease in IL5 level in bronchoalveolar lavage fluid at 6 ug by ELISA; format: functional, Lung
Mus musculus [9] = organism: Mus musculus; experiment: Antiasthmatic effect in ovalbumin-challenged BALB/c mouse assessed as decrease in IL13 level in bronchoalveolar lavage fluid at 6 ug by ELISA; format: functional, Lung
Mus musculus [10] = experiment: Antiasthmatic effect in ovalbumin-challenged transgenic TH2 cells transfected SCID mouse assessed as decrease in eosinophil infiltration in bronchoalveolar lavage fluid at 100 ug administered 4-6 hrs after challenge; format: functional, Lung
Mus musculus [11] = experiment: Antiasthmatic effect in ovalbumin-challenged transgenic TH2 cells transfected SCID mouse assessed as decrease in IL5 level in bronchoalveolar lavage fluid at 100 ug administered 4-6 hrs after challenge by ELISA; format: functional, Lung
Mus musculus [12] = experiment: Antiasthmatic effect in ovalbumin-challenged transgenic TH2 cells transfected SCID mouse assessed as decrease in IL13 level in bronchoalveolar lavage fluid at 100 ug administered 4-6 hrs after challenge by ELISA; format: functional, Lung
TH2 [13] = experiment: Induction of apoptosis in ovalbumin-challenged transgenic BALB/c mouse TH2 cells transfected in SCID mouse assessed as decrease in viable cell in lungs; format: functional, cell-based
Mus musculus [14] = experiment: Antiasthmatic activity in ovalbumin-challenged BALB/c mouse assessed as reduction in airway resistance at 100 ug, intratracheally administered 4 hrs after challenge; format: functional, organism-based
Mus musculus [15] = organism: Mus musculus; experiment: Antiasthmatic effect in ovalbumin-challenged BALB/c mouse assessed as decrease in eosinophil infiltration in bronchoalveolar lavage fluid; format: functional, Lung
Mus musculus [16] = organism: Mus musculus; experiment: Antiasthmatic effect in ovalbumin-challenged BALB/c mouse assessed as decrease in IL5 level in bronchoalveolar lavage fluid by ELISA; format: functional, Lung
Mus musculus [17] = organism: Mus musculus; experiment: Antiasthmatic effect in ovalbumin-challenged BALB/c mouse assessed as decrease in IL13 level in bronchoalveolar lavage fluid by ELISA; format: functional, Lung
Mus musculus [18] = organism: Mus musculus; experiment: Antiasthmatic effect in ovalbumin-challenged BALB/c mouse assessed as decrease in peribronchial eosinophil infiltration in bronchoalveolar lavage fluid; format: functional, organism-based; conditions: Lung
Mus musculus [19] = organism: Mus musculus; experiment: Antiasthmatic effect in ovalbumin-challenged BALB/c mouse assessed as decrease in perivascular eosinophil infiltration in bronchoalveolar lavage fluid; format: functional, organism-based; conditions: Lung
[20] = Inhibition of IL4 production in transgenic BALB/c mouse TH2 cells at 100 uM after 48 hrs; format: functional
[21] = Inhibition of IL4 production in transgenic BALB/c mouse TH2 cells at 50 uM after 48 hrs; format: functional
[22] = Inhibition of IL4 production in transgenic BALB/c mouse TH2 cells at 10 uM after 48 hrs; format: functional
[23] = Inhibition of IL5 production in transgenic BALB/c mouse TH2 cells at 100 uM after 48 hrs; format: functional
[24] = Inhibition of IL5 production in transgenic BALB/c mouse TH2 cells at 50 uM after 48 hrs; format: functional
[25] = Inhibition of IL5 production in transgenic BALB/c mouse TH2 cells at 10 uM after 48 hrs; format: functional
[26] = Inhibition of IL13 production in transgenic BALB/c mouse TH2 cells at 100 uM after 48 hrs; format: functional
[27] = Inhibition of IL13 production in transgenic BALB/c mouse TH2 cells at 50 uM after 48 hrs; format: functional
[28] = Inhibition of IL13 production in transgenic BALB/c mouse TH2 cells at 10 uM after 48 hrs; format: functional
[29] = Inhibition of IL10 production in transgenic BALB/c mouse TH2 cells at 100 uM after 48 hrs; format: functional
[30] = Inhibition of IL10 production in transgenic BALB/c mouse TH2 cells at 50 uM after 48 hrs; format: functional
[31] = Inhibition of IL10 production in transgenic BALB/c mouse TH2 cells at 10 uM after 48 hrs; format: functional
TH2 [32] = experiment: Antiproliferative activity in transgenic BALB/c mouse TH2 cells assessed as [3H]thymidine incorporation after […]; format: functional, cell-based
TH2 [33] = experiment: Induction of apoptosis in transgenic BALB/c mouse TH2 cells after 48 hrs by FACS; format: functional, cell-based
Jurkat [34] = experiment: Induction of apoptosis in human Jurkat cells after 48 hrs by FACS; format: functional, cell-based
Dendritic cell = experiment: Induction of apoptosis in LPS-stimulated BALB/c mouse bone marrow-derived dendritic cells after 48 hrs by ELISA; format: functional, cell-based
Mus musculus [35] = experiment: Antiasthmatic activity in ovalbumin-challenged BALB/c mouse assessed as reduction in airway hyperresponsiveness at 100 ug, intratracheally administered 4 hrs after challenge; format: functional, organism-based
TH2 [36] = experiment: Inhibition of TCR-mediated NF-kappaB activation in transgenic BALB/c mouse TH2 cells at 100 uM by EMSA; format: cell-based
TH2 [37] = experiment: Inhibition of TCR-mediated JNK1 activation in transgenic BALB/c mouse TH2 cells at 100 uM by in vitro kinase assay; format: cell-based
TH2 [38] = experiment: Inhibition of TCR-mediated ERK activation in transgenic BALB/c mouse TH2 cells at 100 uM by Western blotting; format: cell-based
TH2 [39] = experiment: Inhibition of TCR-mediated NFAT activation in transgenic BALB/c mouse TH2 cells at 100 uM by Western blotting; format: cell-based
Jurkat [40] = experiment: Inhibition of TCR-mediated NF-kappaB activation in human Jurkat cells at 100 uM by EMSA; format: cell-based
Jurkat [41] = experiment: Inhibition of TCR-mediated JNK1 activation in human Jurkat cells at 100 uM by in vitro kinase assay; format: cell-based
Jurkat [42] = experiment: Inhibition of TCR-mediated ERK activation in human Jurkat cells at 100 uM by Western blotting; format: cell-based
Jurkat [43] = experiment: Inhibition of TCR-mediated NFAT activation in human Jurkat cells at 100 uM by Western blotting; format: cell-based
Jurkat [44] = experiment: Inhibition of TCR-mediated IkappaB degradation in human Jurkat cells after 30 mins by immunoblotting; format: cell-based
HEK293 [45] = experiment: Inhibition of PKC-theta-induced NF-kappaB activation in HEK293 cells by luciferase reporter gene assay; format: functional, cell-based; conditions: Homo sapiens
HEK293 [46] = experiment: Inhibition of Carma1-induced NF-kappaB activation in HEK293 cells by luciferase reporter gene assay; format: functional, cell-based; conditions: Homo sapiens
HEK293 [47] = experiment: Inhibition of Bcl10-induced NF-kappaB activation in HEK293 cells by luciferase reporter gene assay; format: functional, cell-based; conditions: Homo sapiens
[48] = target: T-cell-specific surface glycoprotein CD28 (Homo sapiens) (UniProt P10747); experiment: Inhibition of CD28-induced NF-kappaB activation in human Jurkat cells by EMSA; format: functional, cell-based
Sequence of T-cell-specific surface glycoprotein CD28 (Homo sapiens) (P10747 whole entry): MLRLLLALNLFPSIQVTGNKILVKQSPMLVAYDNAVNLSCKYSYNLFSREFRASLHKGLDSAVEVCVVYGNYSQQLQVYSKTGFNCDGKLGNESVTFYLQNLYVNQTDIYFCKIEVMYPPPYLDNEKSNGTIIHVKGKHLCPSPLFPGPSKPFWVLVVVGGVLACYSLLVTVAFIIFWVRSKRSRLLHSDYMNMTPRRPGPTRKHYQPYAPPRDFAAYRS

Jurkat [49] = experiment: Inhibition of CD3/CD28-induced NF-kappaB activation in human Jurkat cells by EMSA; format: cell-based
[50] = Inhibition of IFN-gamma production in transgenic TH1 cells at 500 uM after 48 hrs; format: functional
[51] = Inhibition of IFN-gamma production in transgenic TH1 cells at 100 uM after 48 hrs; format: functional
[52] = Inhibition of IFN-gamma production in transgenic TH1 cells at 50 uM after 48 hrs; format: functional
[53] = Inhibition of IFN-gamma production in transgenic TH1 cells at 10 uM after 48 hrs; format: functional
TH1 = experiment: Induction of apoptosis in transgenic TH1 cells after 48 hrs by FACS; format: functional, cell-based
[54] = target: 3-phosphoinositide-dependent protein kinase 1 (Homo sapiens) (UniProt O15530); experiment: Inhibition of recombinant PDK1 autophosphorylation by in vitro kinase assay
Sequence of 3-phosphoinositide-dependent protein kinase 1 (Homo sapiens) (O15530 whole entry, looked up): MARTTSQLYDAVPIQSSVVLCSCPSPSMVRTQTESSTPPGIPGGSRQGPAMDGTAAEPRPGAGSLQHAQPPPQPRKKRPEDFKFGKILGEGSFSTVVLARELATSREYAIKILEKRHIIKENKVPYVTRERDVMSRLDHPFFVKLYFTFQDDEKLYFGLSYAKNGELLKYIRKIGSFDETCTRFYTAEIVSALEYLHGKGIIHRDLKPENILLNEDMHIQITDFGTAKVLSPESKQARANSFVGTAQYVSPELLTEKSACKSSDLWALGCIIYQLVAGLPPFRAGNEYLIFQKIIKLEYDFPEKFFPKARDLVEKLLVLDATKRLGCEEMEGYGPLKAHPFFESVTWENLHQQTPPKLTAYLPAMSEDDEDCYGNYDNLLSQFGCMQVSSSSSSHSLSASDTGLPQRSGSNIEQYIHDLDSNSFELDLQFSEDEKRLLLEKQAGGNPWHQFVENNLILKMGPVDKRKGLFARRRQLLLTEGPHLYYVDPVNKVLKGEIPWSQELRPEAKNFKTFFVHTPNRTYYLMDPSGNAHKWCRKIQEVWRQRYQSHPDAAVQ

[55] = target: 3-phosphoinositide-dependent protein kinase 1 (Homo sapiens) (UniProt O15530); experiment: Inhibition of PDK1 phosphorylation in human Jurkat cells by Western blotting
[56] = Inhibition of IL5 production in transgenic BALB/c mouse TH2 cells at 500 uM after 48 hrs; format: functional
[57] = Inhibition of IL13 production in transgenic BALB/c mouse TH2 cells at 500 uM after 48 hrs; format: functional
[58] = Inhibition of IL10 production in transgenic BALB/c mouse TH2 cells at 500 uM after 48 hrs; format: functional
[59] = Inhibition of IL4 production in transgenic BALB/c mouse TH2 cells at 500 uM after 48 hrs; format: functional

Work on `Nc1c(O)cccc1C(=O)O` yielded an Activity (Mus musculus [1]) of 84000, an Activity (Mus musculus [2]) of 153 pg/mL and an Activity (Mus musculus [3]) of 88 pg/mL. The Activity (Mus musculus [4]) was 58000, the Activity (Mus musculus [5]) was 144 pg/mL and the Activity (Mus musculus [6]) was 91 pg/mL. The Activity (Mus musculus [7]) was 190000, the Activity (Mus musculus [8]) was 219 pg/mL and the Activity (Mus musculus [9]) was 147 pg/mL. The Activity (Mus musculus [10]) was 11000, the Activity (Mus musculus [11]) was under 10 pg/mL and the Activity (Mus musculus [12]) was under 10 pg/mL. For the same compound, the Activity (TH2 [13]) was “Active”, the Activity (Mus musculus [14]) was “Active” and the Activity (Mus musculus [15]) was 155000. The Activity (Mus musculus [16]) was 141 pg/mL, the Activity (Mus musculus [17]) was 66 pg/mL and the Activity (Mus musculus [18]) was “Active”. For the same compound, the Activity (Mus musculus [19]) was “Active”, the Activity [20] was 2 ng/mL and the Activity [21] was 6.7 ng/mL. It also gave an Activity [22] of 11.5 ng/mL, an Activity [23] of under 0.1 ng/mL and an Activity [24] of 1.15 ng/mL. The Activity [25] was 3.24 ng/mL, the Activity [26] was 1.7 ng/mL and the Activity [27] was 4.3 ng/mL. It also gave an Activity [28] of 14.9 ng/mL, an Activity [29] of 2.37 ng/mL and an Activity [30] of 4.88 ng/mL. The Activity [31] was 7.77 ng/mL, the Activity (TH2 [32]) was “Active” and the Activity (TH2 [33]) was “Active”. The Activity (Jurkat [34]) was “Active”, the Activity (Dendritic cell) was “inactive” and the Activity (Mus musculus [35]) was “Active”. For the same compound, the Activity (TH2 [36]) was “Active”, the Activity (TH2 [37]) was “inactive” and the Activity (TH2 [38]) was “inactive”. The Activity (TH2 [39]) was “inactive”, the Activity (Jurkat [40]) was “Active” and the Activity (Jurkat [41]) was “inactive”. For the same compound, the Activity (Jurkat [42]) was “inactive”, the Activity (Jurkat [43]) was “inactive” and the Activity (Jurkat [44]) was “inactive”. For the same compound, the Activity (HEK293 [45]) was “inactive”, the Activity (HEK293 [46]) was “inactive” and the Activity (HEK293 [47]) was “inactive”. For the same compound, the Activity [48] was “Active”, the Activity (Jurkat [49]) was “Active” and the Activity [50] was 1.7 ng/mL. For the same compound, the Activity [51] was 1.8 ng/mL, the Activity [52] was 1 ng/mL and the Activity [53] was 29.7 ng/mL. For the same compound, the Activity (TH1) was “Active”, the Activity [54] was “Dose-dependent effect” and the Activity [55] was “Active”.

Compound `O=C(O)c1cccnc1C(=O)O` [QUINOLINIC ACID] has an Activity (Mus musculus [15]) of 335000, an Activity (Mus musculus [16]) of 312 pg/mL and an Activity (Mus musculus [17]) of 263 pg/mL. The Activity [56] was 4.19 ng/mL, the Activity [57] was 15.4 ng/mL and the Activity [58] was 8.36 ng/mL. It also gave an Activity [59] of 11.3 ng/mL.
